Assay results taken from PubChem BioAssay AID1963843 (Molecular Pharmacology Branch, DTP, NCI, 2024).

System: 616215-338-R-J1-PDC complex spheroid viability
Assay: Anticancer human tumor 616215-338-R-J1-PDC patient-derived colon adenocarcinoma cell line growth inhibition [POLQ]
Conditions: for IC50: curve of first compound; for viability, T/C: stronger effect = lower value
Summary of the method: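 PDC + HUVEC + MSC complex spheroids; POLQ inhibitors ± partner drugs; top conc. at/near clinical Cmax, else 10 microM (SN-38 1 microM), half-log dilutions; 37 degrees C, 5% CO2.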

[1] = second compound 0.0316 µM, first compound 0.0316 µM
[2] = second compound 0.0316 µM, first compound 0.1 µM
[3] = second compound 0.0316 µM, first compound 0.316 µM
[4] = second compound 0.0316 µM, first compound 1 µM
[5] = second compound 0.0316 µM, first compound 3.16 µM
[6] = second compound 0.0316 µM, first compound 10 µM
[7] = second compound 0.1 µM, first compound 0.0316 µM
[8] = second compound 0.1 µM, first compound 0.1 µM
[9] = second compound 0.1 µM, first compound 0.316 µM
[10] = second compound 0.1 µM, first compound 1 µM
[11] = second compound 0.1 µM, first compound 3.16 µM
[12] = second compound 0.1 µM, first compound 10 µM
[13] = second compound 0.316 µM, first compound 0.0316 µM
[14] = second compound 0.316 µM, first compound 0.1 µM
[15] = second compound 0.316 µM, first compound 0.316 µM
[16] = second compound 0.316 µM, first compound 1 µM
[17] = second compound 0.316 µM, first compound 3.16 µM
[18] = second compound 0.316 µM, first compound 10 µM
[19] = second compound 1 µM, first compound 0.0316 µM
[20] = second compound 1 µM, first compound 0.1 µM
[21] = second compound 1 µM, first compound 0.316 µM
[22] = second compound 1 µM, first compound 1 µM
[23] = second compound 1 µM, first compound 3.16 µM
[24] = second compound 1 µM, first compound 10 µM
[25] = second compound 3.16 µM, first compound 0.0316 µM
[26] = second compound 3.16 µM, first compound 0.1 µM
[27] = second compound 3.16 µM, first compound 0.316 µM
[28] = second compound 3.16 µM, first compound 1 µM
[29] = second compound 3.16 µM, first compound 3.16 µM
[30] = second compound 3.16 µM, first compound 10 µM
[31] = second compound 10 µM, first compound 0.0316 µM
[32] = second compound 10 µM, first compound 0.1 µM
[33] = second compound 10 µM, first compound 0.316 µM
[34] = second compound 10 µM, first compound 1 µM
[35] = second compound 10 µM, first compound 3.16 µM
[36] = second compound 10 µM, first compound 10 µM
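Note: spheroids exposed to compounds for one week before readout.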
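Throughout, for viability, T/C: percent viability relative to DMSO vehicle wells taken as 100%.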

## COc1cccc2c1C(=O)c1c(O)c3c(c(O)c1C2=O)CC(O)(C(=O)CO)CC3OC1CC(N)C(O)C(C)O1 (stereo unspecified) + Cc1cccc(N(C)C(=O)C2C(O)CCN2c2nc(C)cc(C(F)(F)F)c2C#N)c1
Second compound 0.0316 µM
  IC50: 1070 nM
Second compound 0.1 µM
  IC50: 1000 nM
Second compound 0.316 µM
  IC50: 785 nM
Second compound 1 µM
  IC50: 688 nM
Second compound 3.16 µM
  IC50: 665 nM
Second compound 10 µM
  IC50: 823 nM
[1]
  viability, T/C: 95.8%
[2]
  viability, T/C: 92.5%
[3]
  viability, T/C: 79.8%
[4]
  viability, T/C: 55.9%
[5]
  viability, T/C: 6.78%
[6]
  viability, T/C: 0.53%
[7]
  viability, T/C: 109%
[8]
  viability, T/C: 92.1%
[9]
  viability, T/C: 80%
[10]
  viability, T/C: 57.5%
[11]
  viability, T/C: 6.89%
[12]
  viability, T/C: 0.26%
[13]
  viability, T/C: 106%
[14]
  viability, T/C: 83.4%
[15]
  viability, T/C: 69.2%
[16]
  viability, T/C: 56.7%
[17]
  viability, T/C: 3.48%
[18]
  viability, T/C: 0.22%
[19]
  viability, T/C: 111%
[20]
  viability, T/C: 85.8%
[21]
  viability, T/C: 71.2%
[22]
  viability, T/C: 48.3%
[23]
  viability, T/C: 3.44%
[24]
  viability, T/C: 0.22%
[25]
  viability, T/C: 96.6%
[26]
  viability, T/C: 79.9%
[27]
  viability, T/C: 65.5%
[28]
  viability, T/C: 48.9%
[29]
  viability, T/C: 1.58%
[30]
  viability, T/C: 0.25%
[31]
  viability, T/C: 83.2%
[32]
  viability, T/C: 82.6%
[33]
  viability, T/C: 76.7%
[34]
  viability, T/C: 44.7%
[35]
  viability, T/C: 0.88%
[36]
  viability, T/C: 0.31%

## C=CCn1c(=O)c2cnc(Nc3ccc(N4CCN(C)CC4)cc3)nc2n1-c1cccc(C(C)(C)O)n1 + Nc1ccc(C#CCN(C(=O)Cc2ncc(C(F)(F)F)cc2C(F)(F)F)c2ccc(F)cc2)nn1
Second compound 0.0316 µM
  IC50: 430 nM
Second compound 0.1 µM
  IC50: 285 nM
Second compound 0.316 µM
  IC50: 302 nM
Second compound 1 µM
  IC50: 365 nM
Second compound 3.16 µM
  IC50: 359 nM
Second compound 10 µM
  IC50: 244 nM
Second compound 0.0316 µM, first compound 0.00316 µM
  viability, T/C: 102%
Second compound 0.0316 µM, first compound 0.01 µM
  viability, T/C: 98.7%
[1]
  viability, T/C: 98.4%
[2]
  viability, T/C: 96.9%
[3]
  viability, T/C: 55.4%
[4]
  viability, T/C: 35.4%
Second compound 0.1 µM, first compound 0.00316 µM
  viability, T/C: 102%
Second compound 0.1 µM, first compound 0.01 µM
  viability, T/C: 89.1%
[7]
  viability, T/C: 96.8%
[8]
  viability, T/C: 97.1%
[9]
  viability, T/C: 45.3%
[10]
  viability, T/C: 29.1%
Second compound 0.316 µM, first compound 0.00316 µM
  viability, T/C: 99.8%
Second compound 0.316 µM, first compound 0.01 µM
  viability, T/C: 111%
[13]
  viability, T/C: 107%
[14]
  viability, T/C: 83%
[15]
  viability, T/C: 49.9%
[16]
  viability, T/C: 28.1%
Second compound 1 µM, first compound 0.00316 µM
  viability, T/C: 98.9%
Second compound 1 µM, first compound 0.01 µM
  viability, T/C: 103%
[19]
  viability, T/C: 100%
[20]
  viability, T/C: 96.8%
[21]
  viability, T/C: 53.2%
[22]
  viability, T/C: 27.6%
Second compound 3.16 µM, first compound 0.00316 µM
  viability, T/C: 90%
Second compound 3.16 µM, first compound 0.01 µM
  viability, T/C: 97.9%
[25]
  viability, T/C: 94.6%
[26]
  viability, T/C: 87.9%
[27]
  viability, T/C: 52.9%
[28]
  viability, T/C: 27%
Second compound 10 µM, first compound 0.00316 µM
  viability, T/C: 79%
Second compound 10 µM, first compound 0.01 µM
  viability, T/C: 91.4%
[31]
  viability, T/C: 91.1%
[32]
  viability, T/C: 79.3%
[33]
  viability, T/C: 41.4%
[34]
  viability, T/C: 26.5%

## COc1cccc2c1C(=O)c1c(O)c3c(c(O)c1C2=O)CC(O)(C(=O)CO)CC3OC1CC(N)C(O)C(C)O1 (stereo unspecified) + Nc1ccc(C#CCN(C(=O)Cc2ncc(C(F)(F)F)cc2C(F)(F)F)c2ccc(F)cc2)nn1
Second compound 0.0316 µM
  IC50: 124 nM
Second compound 0.1 µM
  IC50: < 31.6 nM
Second compound 0.316 µM
  IC50: 89.2 nM
Second compound 1 µM
  IC50: 79.2 nM
Second compound 3.16 µM
  IC50: 58.4 nM
Second compound 10 µM
  IC50: < 31.6 nM
[1]
  viability, T/C: 53.5%
[2]
  viability, T/C: 50.3%
[3]
  viability, T/C: 43.8%
[4]
  viability, T/C: 20.9%
[5]
  viability, T/C: 1.47%
[6]
  viability, T/C: 1.5%
[7]
  viability, T/C: 52%
[8]
  viability, T/C: 46.5%
[9]
  viability, T/C: 42.4%
[10]
  viability, T/C: 26.1%
[11]
  viability, T/C: 1.84%
[12]
  viability, T/C: 0.12%
[13]
  viability, T/C: 61.7%
[14]
  viability, T/C: 41.8%
[15]
  viability, T/C: 40.4%
[16]
  viability, T/C: 22.4%
[17]
  viability, T/C: 0.9%
[18]
  viability, T/C: 0.55%
[19]
  viability, T/C: 65.2%
[20]
  viability, T/C: 40.4%
[21]
  viability, T/C: 35.9%
[22]
  viability, T/C: 23.1%
[23]
  viability, T/C: 2.85%
[24]
  viability, T/C: 0.37%
[25]
  viability, T/C: 52.8%
[26]
  viability, T/C: 48%
[27]
  viability, T/C: 35.2%
[28]
  viability, T/C: 23.5%
[29]
  viability, T/C: 1.29%
[30]
  viability, T/C: 0.18%
[31]
  viability, T/C: 46.3%
[32]
  viability, T/C: 38.1%
[33]
  viability, T/C: 27.4%
[34]
  viability, T/C: 14.9%
[35]
  viability, T/C: 0.84%
[36]
  viability, T/C: 0.33%
